Experimental data: patent US11857565B2, “Hydrophobic Auristatin F compounds and conjugates thereof” (priority 2018, dated 2024)
Starred links: 1 amine or outer side, 2 acyl side, 3 side chain; linkers in the order of their positions; H or OH if unused. Non-standard residues stand in square brackets, D forms with d. Residues, ends and D or L forms follow the SMILES beside them. *: point of attachment. X4 = CC(C)[C@@H](C(=O)[*:2])N(CCCCN(C)C(=O)OC(C)(C)C)[*:1]; Dolaproine = CO[C@@H]([C@@H]1CCCN1)[C@@H](C)C(=O)O; Dil = CC[C@H](C)[C@H](NC)[C@@H](CC(=O)O)OC; X6 = CC(C)[C@@H](C(=O)[*:2])N(C)CCCN[*:1]; X1 = C[C@@H](N*)[C@@H](O)c1ccccc1; NMeV = CN[C@H](C(=O)O)C(C)C; Boc = CC(C)(C)OC(=O)*

B1: h1F6-37(4): 4-load auristatin ADC targeting CD70: h1F6 antibody conjugated to drug linker compound 37 (conjugate, chains of the INN, looked up)
VH: QVQLVQSGAEVKKPGASVKVSCKASGYTFTNYGMNWVRQAPGQGLKWMGWINTYTGEPTYADAFKGRVTMTRDTSISTAYMELSRLRSDDTAVYYCARDYGDYGMDYWGQGTTVTVSS
VL: DIVMTQSPDSLAVSLGERATINCRASKSVSTSGYSFMHWYQQKPGQPPKLLIYLASNLESGVPDRFSGSGSGTDFTLTISSLQAEDVAVYYCQHSREVPWTFGQGTKVEIK
modifications: auristatin drug linker compound 37, 4-load
B2: h1F6-mc-vc-MMAE(4): comparator 4-load h1F6 ADC having an mc-vc-MMAE drug linker (conjugate, chains of the INN, looked up)
VH: B1 VH
VL: B1 VL
modifications: mc-vc-MMAE, 4-load
notes: comparator 4-load h1F6 ADC having an mc-vc-MMAE drug linker
B3: h1F6-38(4): 4-load auristatin ADC targeting CD70: h1F6 antibody conjugated to drug linker compound 38 (conjugate, chains of the INN, looked up)
VH: B1 VH
VL: B1 VL
modifications: auristatin drug linker compound 38, 4-load
B4: h1F6-35(4): 4-load auristatin ADC targeting CD70: h1F6 antibody conjugated to drug linker compound 35 (conjugate, chains of the INN, looked up)
VH: B1 VH
VL: B1 VL
modifications: auristatin drug linker compound 35, 4-load
B5: h1F6-mc-vc-MMAF(4): comparator 4-load h1F6 ADC having an mc-vc-MMAF drug linker (conjugate, chains of the INN, looked up)
VH: B1 VH
VL: B1 VL
modifications: mc-vc-MMAF, 4-load
notes: comparator 4-load h1F6 ADC having an mc-vc-MMAF drug linker
B6: h1F6-36(4): 4-load auristatin ADC targeting CD70: h1F6 antibody conjugated to drug linker compound 36 (conjugate, chains of the INN, looked up)
VH: B1 VH
VL: B1 VL
modifications: auristatin drug linker compound 36, 4-load

Tests used:
Format in all cases: cell-based
SK-MEL-5 Melanoma = assay: In vitro cytotoxicity, free drugs on SK-MEL-5; details: free drug
Experimental: (§1) The cytotoxicity of an auristatin Ligand Drug Conjugate or free auristatin drug was measured by a cell proliferation assay employing the protocol described in Promega Corp. Technical Bulletin TB288; Mendoza et al., 2002, Cancer Res. 62:5485-5488), the methods of which is specifically incorporated by reference herein. Briefly, an aliquot of 100 μl of cell culture containing about […] (e.g., HL-60, SK-MEL-5, etc.) in medium is deposited in each well of a 96-well, opaque-walled plate. Control wells were prepared containing medium and without cells. Free Drug or conjugate is added to the experimental wells and incubated for 96 h and are then equilibrated to room temperature for approximately 30 minutes whereupon a volume of CellTiter-Glo™ reagent equal to the volume of cell culture medium present in each well is added. The contents are mixed for 2 minutes on an orbital shaker to induce cell lysis and the plate is incubated at room temperature for 10 minutes to stabilize the luminescence signal for recordation.

[1] = test system: MDR+ HL60/RV acute myeloid leukemia cell line; assay: In vitro cytotoxicity (CellTiter-Glo cell proliferation assay), free drugs on HL60/RV; details: free drug, 96 h incubation; read-out: In vitro IC50 HL60/RV (MDR+)
Experimental: as §1

[2] = In vitro cytotoxicity, free drugs on Colo-853; details: free drug; read-out: In vitro IC50 Colo-853 Colon Cancer
Experimental: as §1

IGR-37 Melanoma = assay: In vitro cytotoxicity, free drugs on IGR-37; details: free drug
Experimental: as §1

A2058 Melanoma = assay: In vitro cytotoxicity, free drugs on A2058; details: free drug
Experimental: as §1

SK-MEL-28 Melanoma = assay: In vitro cytotoxicity, free drugs on SK-MEL-28; details: free drug
Experimental: as §1

[3] = test system: MDR− HL60 acute myeloid leukemia cell line; assay: In vitro cytotoxicity (CellTiter-Glo cell proliferation assay), free drugs on HL60; details: free drug, 96 h incubation; read-out: In vitro IC50 HL60 (MDR−)
Experimental: as §1

A375 Melanoma = assay: In vitro cytotoxicity, free drugs on A375; details: free drug
Experimental: as §1

[4] = test system: 786-O Renal Cell Carcinoma; assay: In vitro cytotoxicity, 4-load auristatin ADCs on 786-O; details: 4-load ADC
Experimental: as §1

[5] = test system: A498 Renal Cell Carcinoma; assay: In vitro cytotoxicity, 4-load auristatin ADCs on A498; details: 4-load ADC
Experimental: as §1

L428 Hodgkin Lymphoma = assay: In vitro cytotoxicity, 4-load auristatin ADCs on L428; details: 4-load ADC
Experimental: as §1

| Molecule | IC50 [2] | In vitro IC50 786-O Renal Cell Carcinoma [4] | In vitro IC50 A498 Renal Cell Carcinoma [5] | In vitro IC50 L428 Hodgkin Lymphoma (L428 Hodgkin Lymphoma) | other results |
| --- | --- | --- | --- | --- | --- |
| CC[C@H](C)[C@@H]([C@@H](CC(=O)N1CCC[C@H]1[C@H](OC)[C@@H](C)C(=O)N[C@H](C)[C@@H](O)c1ccccc1)OC)N(C)C(=O)[C@@H](NC(=O)[C@@H](NC)C(C)C)C(C)C [Compound 3, Monomethyl auristatin E, reference compound] (H-[NMeV]V[Dil][Dolaproine]-X1) | 0.1 nM | – | – | – | IC50 (SK-MEL-5 Melanoma): 0.1 nM; IC50 [1]: 180 nM; IC50 (IGR-37 Melanoma): 0.2 nM; IC50 (A2058 Melanoma): 0.1 nM; IC50 (SK-MEL-28 Melanoma): 0.1 nM; IC50 [3]: 1 nM; IC50 (A375 Melanoma): 0.1 nM |
| CC[C@H](C)[C@@H]([C@@H](CC(=O)N1CCC[C@H]1[C@H](OC)[C@@H](C)C(=O)N[C@@H](Cc1ccccc1)C(=O)O)OC)N(C)C(=O)[C@@H](NC(=O)[C@H](C(C)C)N(C)CCCNC(=O)OC(C)(C)C)C(C)C [Compound 18, N-Boc-propyl-AF] (Boc-[X6]V[Dil][Dolaproine]F-OH) | 17.5 nM | – | – | – | IC50 (SK-MEL-5 Melanoma; Homo sapiens, SK-MEL-5): 4 nM; IC50 (IGR-37 Melanoma; Homo sapiens, IGR-37): 13.7 nM; IC50 (A2058 Melanoma; Homo sapiens, A2058): 9.1 nM; IC50 (SK-MEL-28 Melanoma; Homo sapiens, SK-MEL-28): 21 nM; IC50 (A375 Melanoma; Homo sapiens, A-375): 4.9 nM |
| CC[C@H](C)[C@@H]([C@@H](CC(=O)N1CCC[C@H]1[C@H](OC)[C@@H](C)C(=O)N[C@@H](Cc1ccccc1)C(=O)O)OC)N(C)C(=O)[C@@H](NC(=O)[C@@H](NCCCCN(C)C(=O)OC(C)(C)C)C(C)C)C(C)C [Compound 17, (Boc-N-methyl)-butyl-AF] (H-[X4]V[Dil][Dolaproine]F-OH) | 66.2 nM | – | – | – | IC50 (SK-MEL-5 Melanoma; Homo sapiens, SK-MEL-5): 26.2 nM; IC50 (IGR-37 Melanoma; Homo sapiens, IGR-37): 62.7 nM; IC50 (A2058 Melanoma; Homo sapiens, A2058): 20.3 nM; IC50 (SK-MEL-28 Melanoma; Homo sapiens, SK-MEL-28): 77.3 nM; IC50 (A375 Melanoma; Homo sapiens, A-375): 14.8 nM |
| B1 | – | 23 ng/mL | 39 ng/mL | 2 ng/mL | – |
| B2 | – | >1000 ng/mL | >1000 ng/mL | >1000 ng/mL | – |
| B3 | – | 12 ng/mL | 36 ng/mL | 2 ng/mL | – |
| B4 | – | 7 ng/mL | 23 ng/mL | 2 ng/mL | – |
| B5 | – | 5 ng/mL | 8 ng/mL | 7 ng/mL | – |
| B6 | – | 4 ng/mL | 9 ng/mL | 1 ng/mL | – |
